The record followed here is patent US12612412B2, “Antiviral heterocyclic compounds” (Enanta Pharmaceuticals, Inc., priority 2021, dated 2026).

The structures appear in SMILES notation. Where two headings read alike, the source gives them in different places. Bounds are passed on as bounds.

Experiment [1] has as its system HMPV clinical isolate TN/1501/A1. Briefly: HMPV antiviral assay Method-B (clinical isolate TN/1501/A1 in LLC-MK2 cells, ATP-Lite readout). The format is cell-based, Human metapneumovirus (HMPV). Particulars: human metapneumovirus, LLC-MK2, 144 h, hMPV WT1501 (clinical isolate TN/1501/A1), 6 days. In short, it runs like this: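 EC50 derived by four-parameter logistic fit of percent cell health, measured by ATP-Lite luminescence and normalised to virus-only and uninfected-cell controls. Compounds run in duplicate from 10 μM top, 3-fold, 10 points. Infection: LLC-MK2 cells, MOI 0.014, 2 μg/mL final TPCK-trypsin, serum-free, 6 days at 37° C.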

For experiment [2], the system named is genotype A, "Long" strain RSV. Kind of experiment: RSV-A assay (CPE protection in Hep-2 cells, ATPlite readout). The experiment is classed as cell-based, Human respiratory syncytial virus (HRSV). Particulars: human respiratory syncytial virus, MOI 0.1, CPE protection. In outline:
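Hep-2 cells (8,000/well) infected with RSV Long strain at MOI 0.1 in the presence of 2-fold compound dilutions in duplicate. After 5 days, cell viability measured by ATPlite luminescence, normalized between virus-only and uninfected cell controls; EC50 reported.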

The mark [3] stands for this setting: genotype A “Long” strain RSV, read-out: Human RSV-A (“Long”).
[4] abbreviates: RSV-A Long strain, read-out: Human RSV-A (“Long”) EC50.

Consider `COc1cc(C(=O)NC[C@](O)(c2cc3c(c(-c4ccc(C(F)(F)F)c(Cl)c4)n2)OC[C@]3(C)C(N)=O)C(F)(F)F)cc2cn(C3CC3)nc12` [Example 579], for which the values for the EC50 in experiment [1] and in experiment [2] (setting [3]) were above 500 nM and below 200 nM, respectively.
Turning to `COc1cc(C(=O)NCC(O)(c2cc3c(c(-c4cnn(C)c4)n2)OC[C@]3(C)C(N)=O)C(F)(F)F)cc2cn(C3CC3)nc12` (some centres unmarked) [Example 903], the EC50 is above 500 nM in experiment [1] and below 200 nM in experiment [2] (setting [4]).
The like results for `COc1cc(C(=O)NC[C@](O)(c2cc3c(c(-c4ccc(F)cc4)n2)OC[C@@]3(C(N)=O)C2CC2)C(F)(F)F)cc2cc(C3CC3)nn12` [Example 1065] were, in that order, below 500 nM and below 200 nM.
Regarding `COc1cc(C(=O)NC[C@](O)(c2cc3c(c(-c4ccc(F)c(F)c4F)n2)OC[C@]3(C(N)=O)C(F)F)C(F)(F)F)cc2cc(Cl)c(C)nc12` [Example 1040], the EC50 in experiment [1] is above 500 nM; in experiment [2] (setting [4]) it was below 200 nM.
For `COc1cc(C(=O)NC[C@](O)(c2cc3c(c(-c4ccc(Cl)cc4)n2)OC[C@]3(C)C(N)=O)C(F)(F)F)cc2cn(C3CC3)nc12` [Example 585], the EC50 is above 500 nM in experiment [1] and below 200 nM in experiment [2] (setting [3]).
With `COc1cc(C(=O)NC[C@](O)(c2cc3c(c(-c4cc(F)c(F)cc4F)n2)OC[C@]3(C)C(N)=O)C(F)(F)F)cc2cn(C3CC3)nc12` [Example 1135], the EC50 in experiment [1] is below 500 nM; in experiment [2] (setting [4]), below 200 nM.
For `C[C@]1(C(N)=O)COc2c1cc([C@@](O)(CNC(=O)c1cc(Cl)c3nn(C4CC4)cc3c1)C1CC1)nc2-c1ccc2c(c1)OC(F)(F)O2` [Example 547], the EC50 in experiment [1] was below 500 nM; in experiment [2] (setting [3]), below 200 nM.
In the same order, the values of `COc1cc(C(=O)NC[C@](O)(c2cc3c(c(-c4ccc(Cl)cc4)n2)OC[C@]3(C)C(N)=O)C(F)(F)F)cc2cn(C(F)F)nc12` [Example 586] are above 500 nM and below 200 nM.
For `C[C@]1(C(N)=O)COc2c1cc([C@@](O)(CNC(=O)c1cc3c(cn1)OC(F)(F)O3)C(F)(F)F)nc2-c1ccc(F)cc1` [Example 1067], the EC50 was above 500 nM in experiment [1] and below 200 nM in experiment [2] (setting [4]).
The like results for `COc1cc(C(=O)NC[C@](O)(c2cc3c(c(-c4ccc(F)cc4)n2)OC[C@]3(C)C(N)=O)C(F)(F)F)cc2cn(C(F)(F)F)nc12` [Example 1068] were, in that order, below 500 nM and below 200 nM.
On to `COc1cc(C(=O)NC[C@](O)(c2nc(-c3cc(Cl)c(F)cc3F)c3c(c2F)[C@@](C)(C(N)=O)CO3)C2CC2)cc2cn(C(F)F)nc12` [Example 1162], for which the figures for the EC50 in experiment [1] and in experiment [2] (setting [4]) were below 500 nM and below 200 nM, respectively.
In the same order, the values of `COc1cc(C(=O)NC[C@](O)(c2cc3c(c(-c4cc(F)c(Cl)cc4F)n2)OC[C@]3(C)C(N)=O)C2CC2)cc2cn(C3CC3)nc12` [Example 1177] are below 500 nM and below 200 nM.
In the same order, the values of `COc1cc(C(=O)NC[C@@](O)(c2cc3c(c(-c4cc5c(cc4Cl)OC(F)(F)O5)n2)OC[C@]3(C)C(N)=O)C(F)(F)F)cc2cn(C3CC3)nc12` [Example 1226] are above 500 nM and below 200 nM.
Regarding `Cc1cnc2c(OCC(F)F)cc(C(=O)NC[C@](O)(c3cc4c(c(-c5ccc(F)cc5)n3)OC[C@]4(C)C(N)=O)C3CC3)cc2c1` [Example 498], the EC50 in experiment [1] is below 500 nM; in experiment [2] (setting [3]), below 200 nM.
In the same order, the values of `COc1cc(C(=O)NC[C@](O)(c2cc3c(c(-c4cc(Cl)ccc4F)n2)OC[C@]3(C)C(N)=O)C2(F)CC2)cc2cn(C3CC3)nc12` [Example 735] are below 500 nM and below 200 nM.
As to `C[C@]1(C(N)=O)COc2c1cc([C@@](O)(CNC(=O)c1cc(Cl)c3nn(C4CC4)cc3c1)C1CC1)nc2-c1cc(F)c(F)cc1F` [Example 1148], the values for the EC50 in experiment [1] and in experiment [2] (setting [4]) were below 500 nM and below 200 nM, respectively.
Turning to `COc1cc(C(=O)NC[C@](O)(c2cc3c(c(-c4ccc5c(c4)OC(F)(F)O5)n2)OC[C@]3(C)C(N)=O)C2CC2)cc2cn(C(F)F)nc12` [Example 823], the EC50 was below 500 nM in experiment [1] and below 200 nM in experiment [2] (setting [3]).
On to `COc1cc(C(=O)NC[C@](O)(c2cc3c(c(-c4ccc(OC(F)(F)F)c(Cl)c4)n2)OC[C@]3(C)C(N)=O)C(F)(F)F)cc2cn(C3CC3)nc12` [Example 983], for which the values for the EC50 in experiment [1] and in experiment [2] (setting [4]) were above 500 nM and below 200 nM, respectively.
`C[C@]1(C(N)=O)COc2c1cc([C@@](O)(CNC(=O)c1ccc3nn(C4CC4)cc3c1)C1CC1)nc2-c1cccc(Br)c1F` [Example 1100]: the EC50 in experiment [1] is below 500 nM; in experiment [2] (setting [4]), below 200 nM.
For the compound `COc1ccc(C(=O)NC[C@](O)(c2cc3c(c(-c4ccc(F)cc4)n2)OC[C@]3(C)C(N)=O)C(F)(F)F)c2[nH]ccc12` [Example 696], the EC50 in experiment [1] was above 500 nM; in experiment [2] (setting [3]), below 200 nM.
As to `COc1cc(C(=O)NC[C@](O)(c2cc3c(c(-c4cc(F)c(F)cc4F)n2)OC[C@]3(C)C(N)=O)C(F)(F)F)cc2cn(C(F)F)nc12` [Example 1136], the figures for the EC50 in experiment [1] and in experiment [2] (setting [4]) were below 500 nM and below 200 nM, respectively.
As to `C[C@]1(C(N)=O)COc2c1cc([C@@](O)(CNC(=O)c1cc(OC3CC3)n3nc(C4CC4)cc3c1)C(F)(F)F)nc2-c1ccc(F)c(F)c1F` [Example 508], the EC50 was below 500 nM in experiment [1] and below 200 nM in experiment [2] (setting [3]).
`COc1cc(C(=O)NC[C@](O)(c2cc3c(c(-c4ccc(F)c(Cl)c4)n2)OC[C@]3(C)C(N)=O)C2(F)CC2)cc2cn(C(F)F)nc12` [Example 721]: the EC50 in experiment [1] was above 500 nM; in experiment [2] (setting [3]) it was below 200 nM.
On to `COc1cc(C(=O)NC[C@](O)(c2cc3c(c(-c4c(F)cc(F)cc4F)n2)OC[C@]3(C)C(N)=O)C(F)(F)F)cc2cn(C3CC3)nc12` [Example 997], for which the EC50 in experiment [1] is below 500 nM; in experiment [2] (setting [4]) it was below 200 nM.
For the compound `COc1cc(C(=O)NC[C@](O)(c2cc3c(c(-c4cc(F)c(F)c(Cl)c4)n2)OC[C@]3(C)C(N)=O)C(F)(F)F)cc2cn(C3CC3)nc12` [Example 782], the EC50 in experiment [1] is below 500 nM; in experiment [2] (setting [3]), below 200 nM.
In the same order, the values of `COc1cc(C(=O)NC[C@](O)(c2cc3c(c(-c4ccc(F)c(F)c4F)n2)OC[C@]3(C)C(N)=O)C2CC2)cc2cc(Br)cnc12` [Example 532] are below 500 nM and below 200 nM.
On to `C[C@]1(C(N)=O)COc2c1cc([C@@](O)(CNC(=O)c1cc(OC3CC3)c3nn(C4(F)CC4)cc3c1)C1CC1)nc2-c1ccc2c(c1)OC(F)(F)O2` [Example 846], for which the EC50 is below 500 nM in experiment [1] and below 200 nM in experiment [2] (setting [4]).
On to `Cc1cnc2c(Cl)cc(C(=O)NC[C@](O)(c3cc4c(c(-c5cc(Br)c(F)cc5F)n3)OC[C@]4(C)C(N)=O)C3CC3)cc2c1` [Example 1093], for which the EC50 is below 500 nM in experiment [1] and below 200 nM in experiment [2] (setting [4]).
In the same order, the values of `COc1cc(C(=O)NC[C@](O)(c2cc3c(c(-c4cccc(F)c4F)n2)OC[C@]3(C)C(N)=O)C(F)(F)F)cc2cn(C3CC3)nc12` [Example 988] are below 500 nM and below 200 nM.
`Cc1nc2c(OC3CC3)cc(C(=O)NC[C@](O)(c3cc4c(c(-c5ccc(F)cc5)n3)OC[C@]4(C)C(N)=O)C3(F)CC3)cc2cc1Cl` [Example 739]: the EC50 is below 500 nM in experiment [1] and below 200 nM in experiment [2] (setting [3]).
For the compound `COc1cc(C(=O)NC[C@](O)(c2cc3c(c(-c4ccc(F)cc4)n2)OC[C@]3(C)C(N)=O)C2CC2)cc2cc(C(F)F)nnc12` [Example 1128], the EC50 was above 500 nM in experiment [1] and below 200 nM in experiment [2] (setting [4]).
